The record followed here is ChEMBL document CHEMBL3351378, “Phenyl acetate derivatives, fluorine-substituted on the phenyl group, as rapid recovery hypnotic agents with reflex depression” (Eur J Med Chem, 2015).

Each structure is given as a SMILES string. The source made the active and inactive calls. The rule behind the calls is not given here.

Series [1] relates to Rattus norvegicus. The series is described as follows: Induction of hypnotic activity in iv dosed Sprague-Dawley rat assessed as time duration of loss of righting reflex. Format: functional.
Series [2] deals with Rattus norvegicus. In words: Induction of hypnotic activity in iv dosed Sprague-Dawley rat assessed as reflex depression 20 secs following injection. Type of series: functional, organism-based.
The subject of series [3] is Rattus norvegicus. The series is described as follows: Induction of hypnotic activity in iv dosed Sprague-Dawley rat assessed as reflex depression 180 secs following injection. Format: functional, organism-based.
The nature of series [4]: Therapeutic index, ratio of […] for Sprague-Dawley rat by rotarod test to HD50 for hypnotic activity in iv dosed Sprague-Dawley rat. Type of series: organism-based. The following applies: in vivo, read-out: TI. On the technique in general: Falling from the rotarod earlier than controls is read as motor impairment.
The subject of series [5] is Rattus norvegicus. The series is described as follows: Induction of hypnotic activity in iv dosed Sprague-Dawley rat assessed as reflex depression 60 secs following injection. Format: functional, organism-based.
Series [6] concerns Rattus norvegicus. The series is described as follows: Induction of hypnotic activity in iv dosed Sprague-Dawley rat assessed as loss of righting reflex. Type of series: functional.
The subject of series [7] is Rattus norvegicus. In words: Induction of hypnotic activity in iv dosed Sprague-Dawley rat assessed as reflex depression 120 secs following injection. Format: functional, organism-based.
Series [8] in a line: Toxicity in Sprague-Dawley rat assessed as motor coordination by rotarod test. Type of series: organism-based. The conditions noted are these: in vivo.
In series [9] the test system is Rattus norvegicus. The series is described as follows: Induction of hypnotic activity in iv dosed Sprague-Dawley rat assessed as reflex depression 30 secs following injection. Type of series: functional, organism-based.
The subject of series [10] is Rattus norvegicus. In words: Induction of hypnotic activity in iv dosed Sprague-Dawley rat assessed as reflex depression 10 secs following injection. Type of series: functional, organism-based.
Series [11] concerns the target Glutamate NMDA receptor (Rattus norvegicus) (UniProt P35439+Q00959+Q00960+Q00961+Q62645+Q8VHN2+Q9R1M7). In words: Displacement of [3H]MK801 from NMDA receptor in Sprague-Dawley rat cerebral cortex membrane at 50 umol by liquid scintillation counting. Type of series: tissue-based. A general note: In a radioligand displacement assay an active substance lowers the binding of a labelled ligand.

Series [12] has as its system Rattus norvegicus. The series is described as follows: Induction of hypnotic activity in Sprague-Dawley rat assessed as recovery time to walking at 5.6 mg/kg/min after 20 mins to 3 hrs. Type of series: functional, organism-based.

Broadly, the TD50 is the dose at which the toxic effect under study appears in half of the subjects. Regarding `CCOC(=O)Cc1cc(OCC)c(OCC(=O)N(CC)CC)cc1F`, the Time in the series with Rattus norvegicus [1] stood at 209.6 s. For the same molecule, the outcome in the series with Rattus norvegicus [2], in the series with Rattus norvegicus [3], with Rattus norvegicus [5], with Rattus norvegicus [7] and in the series on Rattus norvegicus [9] was Active. Further, the selectivity ratio in [4] amounted to 14.4. Further, the HD50 in the series on Rattus norvegicus [6] was 5.6 mg/kg. The TD50 in [8] came out at 74.5 mg/kg. Besides, the result in the series with Rattus norvegicus [10] and with Rattus norvegicus [12] was inactive. The molecule also came in with an Activity in series [11] of 56.6%.

As for `CCCOC(=O)Cc1ccc(OCC(=O)N(CC)CC)c(OC)c1` [PROPANIDID], the Time in the series with Rattus norvegicus [1] came out at 93.3 s. Further, the result in the series with Rattus norvegicus [2] and with Rattus norvegicus [10] was Active. The selectivity ratio in series [4] stood at 9.6. In addition, the HD50 with Rattus norvegicus [6] worked out at 8.5 mg/kg. Further, the TD50 in [8] turned out to be 80.6 mg/kg. In series [11], the result was inactive.
